Test results taken from US20120108668A1, “METABOLIC PROFILES” (priority 2009, published 2012).

How the values were obtained:
AIA Lewis rats = experiment: Treatment study of the active compound in AIA Lewis rats; serum metabolite profile by GC/TOFMS and OPLS; format: in vivo; conditions: 1 mg, 3 mg or 10 mg active compound
Source text: This example illustrates the potency of the active compound and its therapeutically active acid addition salts for treatment of […].
AIA was induced in a total of 21 Lewis rats were included in the treatment study. Samples used consist of the following blood samples: • 22 samples from AIA Lewis rats (one of the rats was sampled twice) • 26 samples from treated AIA Lewis rats (five of the rats was sampled twice)
Different treatments were distributed in the AIA subjects as follows: • 5 subjects received 1 mg active compound • 5 subjects received 3 mg active compound • 6 subjects received 10 mg active compound • 5 subjects received 1 mg methotrexate Extraction of Metabolites from Serum
(§1) Extraction of metabolites from serum samples was essentially performed as the method described by A et al. (2005). 630 μl of MeOH:H2O (9:1 V:V) including internal standards was added to 70 μl of serum. The solution was vortex mixed for 10 s, kept on ice for 10 min, and then vigorously extracted at a frequency of 30 Hz for 3 min using a MM301 vibration Mill (Retsch GmbH & Co. KG, Haan, Germany. After […] on ice, the samples were centrifuged at 19 600 g for 10 min at 4° C. 200 μl of the supernatant was transferred to a GC vial, and 50 μl was transferred to a LC/MS vial and evaporated to dryness.
GC/TOFMS analysis and the Data processing of MS-data was carried out as in Example 1 above.

AIA DA rats = experiment: Treatment of RA in an AIA rat model with an experimental substance; serum metabolite profile by GC/TOFMS and OPLS-DA; format: in vivo, Dark Agouti (DA) rats; conditions: treated vs untreated; for regulation of endogenous metabolite levels in treated animals (OPLS-DA loadings): FIG. 7B
Source text: Treatment of RA in an AIA Rat Model with an Experimental Substance (Arginine)
AIA was induced in three Dark Agouti (DA) rats and the rats were then given treatment with an experimental substance.
The rat model samples used consist of the following blood samples: • 3 samples from AIA DA rats • 4 samples (one of the rats was sampled twice) from AIA DA rats treated with the experimental substance. Extraction of Metabolites from Serum
as §1
Prior GC/MS analysis the samples were derivatised with 30 μL of methoxyamine hydrochloride (15 mg mL-1) in pyridine by shaking for 10 min at 5° C., then incubating them for 16 h at room temperature. The samples were then trimethylsilylated by adding 30 μL of […] (MSTFA) with 1% TMCS and incubating them for 1 h at room temperature. After silylation, 30 μL of heptane (containing 0.5 μg methyl stearate as internal standard) was added. 0.1 μl of derivatized sample was injected split less by an Agilent 7683 Series Autosampler (Agilent, Atlanta; GA, USA) into an Agilent 6980 GC equipped with a 10 m×0.18 mm ID, fused silica capillary column chemically bonded with 0.18 μm DB5-MS stationary phase (J&W Scientific, Folsom, Calif., USA). The injector temperature was set at 270° C. Helium was used as carrier gas at a constant flow rate of 1 ml/min through the column. For every analysis, the purge time was set to 60 s at a purge flow rate of 20 ml min-1 and an equilibration time of 1 min. […]

SMILES | melting point | levels of the metabolites associated with AD, effect of treatment (AIA Lewis rats) | separation of untreated and treated AIA animals in the OPLS-DA scores scatter plot (patterns of endogenous metabolites) (AIA DA rats; FIG. 7A) | regulation of endogenous metabolite levels in treated animals (OPLS-DA loadings) (AIA DA rats) | regulation of endogenous metabolite levels in treated animals (OPLS-DA loadings) (AIA DA rats; listed as administered substance)
COc1ccc(C=NNC(=N)N)c(Cl)c1OC [active compound, N-(2-chloro-3,4-dimethoxybenzylideneamino)guanidine] | 198 to 200 °C | significantly affected | – | – | –
N=C(N)NCCC[C@H](N)C(=O)O [experimental substance, Arginine] | – | – | well separated | Almost all metabolites are up regulated | up regulation of many of the metabolites
